Assay results taken from paper PMC8162438, “Cancer cell-selective modulation of mitochondrial respiration and metabolism by potent organogold(III) dithiocarbamates” (Chemical Science, 2020).
“Also recorded” adds a separate entry of the source.

Assay: UV-vis stability in PBS, DMEM and RPMI-1640
Assay type: physicochemical
Settings: 50 μM, DMEM, RPMI-1640, 37 °C, over 24 h
From the text: We next evaluated the stability of all ten complexes in three relevant biological media, namely, PBS (phosphate-buffered saline), DMEM (Dulbecco's modified eagle medium), and RPMI-1640 (Roswell Park Memorial Institute-1640). RPMI-1640 contain several biological nucleophiles such as amino acids and extracellular relevant levels of GSH, which are common sources of reductants. Development of new drug molecules require proper characterization of compound stability in solution. To evaluate their stability, the complexes were prepared as a stock solution in DMSO (5 mM) and diluted with PBS or DMEM at room temperature to a final concentration of 50 μM. […]
UV-vis Stability in DMEM, PBS and RPMI-1640 at 37 °C. All spectra were recorded on a Shimadzu UV-1280 model instrument. […] Time periods of t = 0 h (after preparation of sample), 1 h, 6 h, 12 h, and 24 h were recorded. […] The absorbance profile was scanned from 650 nm to 240 nm for each scan. For each complex, the data were normalized to the highest absorbance at t = 0 h and plotted in GraphPad Prism 6. […]
Reactivity with GSH (UV-vis Spectroscopy). […] All spectra were recorded on a Shimadzu UV-1280 model instrument.
A blank was prepared by mixing 50 µL of DMSO and 1.95 mL of PBS. Time intervals of 5 minutes and 12 h were recorded. […] For each reaction, the spectrum was normalized to the highest absorbance and plotted in GraphPad Prism 6. […]

Compound | Stability in biological media (UV-vis absorbance)
C[N+](C)=C1[S][Au-2]2([S]1)[c]1ccccc1C(=O)c1cccc[n+]12.F[P-](F)(F)(F)(F)F (centres unmarked) [1a] | no significant decrease in absorbance
C[N+](C)=C1[S][Au-2]2([S]1)[c]1ccccc1Cc1cccc[n+]12.F[P-](F)(F)(F)(F)F (centres unmarked) [2a] | higher stability in PBS, and DMEM; also recorded: no significant decrease in absorbance
